Consider two molecules from patent US20190313679A1, “SUGAR-DIPEPTIDE CONJUGATES AS FLAVOR MOLECULES” (NESTEC S.A., priority 2016, published 2019).

Residues, ends and D or L forms follow the SMILES beside them.

Common to all, as to format: in vivo
Test [1] in a line: Sensory evaluation of the compounds in water. The note with it: 2 g/L in water, 12 panelists. The protocol: The compounds glutamyl-threonine and 1-deoxy-D-fructosyl-N-glutamyl-threonine were each dissolved and diluted in water in a final concentration of 2 g/L. The solutions were then evaluated by 12 panelists, which were previously screened and selected for their sensory abilities.

The nature of test [2]: Seasoning compositions: tomato soups with added compound. The note with it: tomato soup, 0.5 g/L or 2.5 g/L, versus reference soups without the compounds. The protocol: Tomato soups can be prepared by dissolving 6 g tomato base powder as can be obtained in the commerce in 500 mL hot water. 1-deoxy-D-fructosyl-N-glutamyl-threonine or alternatively 1-deoxy-D-fructosyl-N-glutamyl-serine can be added at a concentration of 0.5 g/L or 2.5 g/L to the soups in order to improve their taste and flavor profile. […] For example, a similar tomato soup can now be prepared which has the same saltiness as the reference tomato soup but comprising less sodium chloride.

Test [3] in a line: Comparison between soup bases containing the sugar conjugate and the mixture of glucose and glutamyl-threonine. The note with it: soup base with 2 g/L (4.57 mmol/L) versus reference soup with same molar glucose and glutamyl-threonine, 6 panelists. Here is the method: A first soup was prepared by adding 2 g/L (4.57 mmol/L) 1-deoxy-D-fructosyl-N-glutamyl-threonine in the soup base described above under Example 4. A second soup was prepared by adding the corresponding same molar concentrations of glucose and glutamyl-threonine to the same soup base. The resulting soups were then evaluated by 6 panelists following the same procedure than described above under Example 4.

Test [4] is described as follows: Sensory evaluation of the compounds in a chicken soup base. The note with it: chicken soup with 2 g/L versus reference samples, 12 panelists. The protocol:
Chicken soups were prepared by dissolving 6 g chicken base powder (detailed recipe shown in Table 1) and 1 g monosodium glutamate in 500 mL hot water. 1-Deoxy-D-fructosyl-N-glutamyl-threonine was then added separately at 2 g/L final concentrations.
The sensory evaluation was carried out by 12 panelists, previously screened for their sensory abilities. The panelists assessed a maximum of 6 samples per session. They had Vittel water and crackers as mouth cleansers. In all the cases, the panelists were instructed to evaluate the samples for the following attributes: overall flavor persistency, umami, meaty, grilled/popcorn-like, bread-like, boiled chicken, sweet, bitter, and salty. The samples were coded with random 3-digit numbers according to a balanced presentation design, heated at approximately 65° C. and then presented in 40 mL brown plastic containers and under red light to minimize appearance bias (the serving was approximately 25 mL per sample).
The following statistical tests were used to analyze the sensory raw data: First, the Analysis of Variance (ANOVA) with two factors, products (fixed factor) and subject (random factor) was computed in order to determine if there was any difference among samples. The limit of significance (alpha risk) was set at 5%. […] The limit of significance (alpha risk) was set at 5%.

`CC(O)[C@H](NC(=O)[C@H](CCC(=O)O)NCC1(O)OCC(O)C(O)C1O)C(=O)O` (stereo partly drawn) [1-deoxy-D-fructosyl-N-glutamyl-threonine]: in test [1], the “perceived saltiness of the aqueous solution versus the reference samples” value is “much more salty”. Further, in test [2], the perceived saltiness entry was “more salty” and the umami result is listed as “more pronounced umami”. For the same molecule, in test [3], the “salty and umami taste, tasted with nose-clips” value was “significantly more salty and umami”; the “savory flavors, tasted without nose-clips” value was “clearly more enhanced savory flavors”. The bitterness entry in test [4] is listed as “decreased”. Besides, the saltiness result in test [4] (FIG. 1) was “significantly increased”. Further, in test [4] (clear trend), the meaty taste result is recorded as “improved” and the umami taste entry is listed as “improved”.

For `C[C@@H](O)[C@H](NC(=O)[C@@H](N)CCC(=O)O)C(=O)O` [glutamyl-threonine, reference compound] (H-Glu-Thr-OH), the “taste of the aqueous solution” value in test [1] is “slightly umami and salty”.
